Test results: US20230310496A1, “COMPOSITIONS AND METHODS FOR PREVENTING AND/OR AM[…]-[…] AUTOIMMUNE DISEASES” (MiZ Company Limited, priority 2022, published 2023)
Where two headings read alike, the source gives them in different places.

Key:
myasthenia gravis = assay: Course of myasthenia gravis under drugs before inhalation of hydrogen gas (Example 1); type: in vivo, human; conditions: Tacrolimus 3 mg/day, Mestinon 60 mg × 3/day
Protocol: The course from onset is as follows:
Aug. 26, 2021: upper lip paralysis occurred. […] Since the patient was positive on an ice pack test and a Tensilon test, they were diagnosed as myasthenia gravis. No abnormality was found in a CT test. As a result of a blood test, the patient was false positive to an anti-acetylcholine antibody and prescribed an immunosuppressant (Tacrolimus 3 mg/day). […] The patient could not read letters on a newspaper, raise a frying pan or write letters, and their chewing power reduced.
Sep. 9, 2021: the patient consulted the doctor because of worsening of symptoms and prescribed an anticholinesterase agent (Mestinon 60 mg × 3/day). […] Every day after 3 p.m. or later, the patient felt that their arms are unbearably heavy. Since the arms cannot be removed, the patient spent time with the arms kept on a table.
Sep. 25, 2021: since symptoms were not improved and merely got worse, the patient changed their primary doctor to a neuroimmunology specialist doctor and hospitalization was considered.
Sep. 29, 2021: an immunosuppressant (1 mg) was additionally prescribed by the neuroimmunology specialist doctor; that is, immunosuppressants (Tacrolimus 3 mg/day, Prograf 1 mg/day) were prescribed. The patient avoided hospitalization but was followed up as an outpatient. […] Based on the result, the patient was definitively diagnosed as anti-MuSK antibody positive myasthenia gravis. […]

[1] = system: anti-MuSK antibody positive myasthenia gravis; conditions: for relapse after use of the immunosuppressants was stopped: only hydrogen gas inhalation continued since Mar. 30, 2022, supplemental hydrogen water
Protocol: Patient: person at the time of onset. The course from onset is as follows:
Jan. […] (Kamakura city, Kanagawa prefecture, Japan).
Aug. 24, 2022: medical examination was carried out at the Department of Neurology in the Juntendo University Hospital.

Hashimoto's disease = conditions: MHG-2000α, hydrogen about 5% to 7%
[2] = human, in vivo

Row | Compound | symptoms of myasthenia gravis under the drug (myasthenia gravis) | languor of the arm ([1]; Day 5 after initiation of inhalation, Jobs-α, hydrogen about 4% to 5%, Jan. 28, 2022) | constipation, a side effect of the immunosuppressants ([1]; Feb. 1, 2022, inhalation started Jan. 23, 2022) | blemishes on their face ([1]; Feb. 16, 2022) | symptoms of myasthenia gravis ([1]; Mar. 20, 2022) | body feeling when inhaling hydrogen gas ([1]; Mar. 22, 2022) | state of myasthenia gravis as told by the doctor ([1]; Oct. 19, 2022) | face turning red after drinking alcohol (side effect of the drugs) ([1]; after inhalation of hydrogen, Feb. 1, 2022) | number of red blood cells ([1]; blood test Mar. 9, 2022, under hydrogen inhalation, normal 3.8 to 5.04) | hematocrit ([1]; blood test Mar. 9, 2022, under hydrogen inhalation, normal 35.6 to 45.4) | anti-MuSK antibody ([1]; medical examination Aug. 24, 2022) | relapse after use of the immunosuppressants was stopped [1] | relapse after use of the immunosuppressants was stopped ([1]; listed as hydrogen) | fatigue (Hashimoto's disease) | visual field (dark visual field) (Hashimoto's disease) | side effects of hydrogen itself [2]
1 | CN(C)C(=O)Oc1ccc[n+](C)c1 [Mestinon] | their symptoms further got worse | – | – | – | – | – | – | – | – | – | – | – | – | – | – | –
2 | C=CC[C@@H]1/C=C(\C)C[C@H](C)C[C@H](OC)[C@H]2O[C@@](O)(C(=O)C(=O)N3CCCC[C@H]3C(=O)O[C@H](/C(C)=C/[C@@H]3CC[C@@H](O)[C@H](OC)C3)[C@H](C)[C@@H](O)CC1=O)[C@H](C)C[C@@H]2OC [Tacrolimus] | the symptoms progressed | – | – | – | – | – | – | – | – | – | – | – | – | – | – | –
3 | [HH] [hydrogen gas, hydrogen] | – | completely gone | overcome | became light | no longer observed | the body gets lighter | not in remission but in healed state | their face never turned red | 4.22 10^12/L | 40.7% | negative | no relapse occurred | no relapse has taken place | felt less fatigued | recovered from darkness and became bright | not found
